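96-well plates; 48 h exposure; 5 concentrations. Endpoints by linear interpolation between flanking doses. Not reached: highest tested concentration assigned. TGI marks complete inhibition of growth.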
Tests used:
Assay in all cases: NCI anticancer screen, dose series, 48 h
786-0 renal = test system: 786-0 renal
A498 renal = test system: A498 renal
A549 NSCLC = test system: A549 NSCLC
ACHN renal = test system: ACHN renal
BT-549 breast = test system: BT-549 breast
CAKI-1 renal = test system: CAKI-1 renal
CCRF-CEM leukemia = test system: CCRF-CEM leukemia
COLO 205 colon = test system: COLO 205 colon
DU-145 prostate = test system: DU-145 prostate
EKVX NSCLC = test system: EKVX NSCLC
HCC-2998 colon = test system: HCC-2998 colon
HCT-116 colon = test system: HCT-116 colon
HCT-15 colon = test system: HCT-15 colon
HL-60(TB) leukemia = test system: HL-60(TB) leukemia
HOP-62 NSCLC = test system: HOP-62 NSCLC
HOP-92 NSCLC = test system: HOP-92 NSCLC
HT29 colon = test system: HT29 colon
IGROV1 ovarian = test system: IGROV1 ovarian
K-562 leukemia = test system: K-562 leukemia
KM12 colon = test system: KM12 colon
LOX IMVI melanoma = test system: LOX IMVI melanoma
M14 melanoma = test system: M14 melanoma
MALME-3M melanoma = test system: MALME-3M melanoma
MCF7 breast = test system: MCF7 breast
MDA-N = test system: MDA-N
MOLT-4 leukemia = test system: MOLT-4 leukemia
NCI-H226 lung = test system: NCI-H226 lung
NCI-H23 lung = test system: NCI-H23 lung
NCI-H460 lung = test system: NCI-H460 lung
NCI-H522 lung = test system: NCI-H522 lung
NCI/ADR-RES ovarian = test system: NCI/ADR-RES ovarian
OVCAR-3 ovarian = test system: OVCAR-3 ovarian
OVCAR-4 ovarian = test system: OVCAR-4 ovarian
OVCAR-5 ovarian = test system: OVCAR-5 ovarian
OVCAR-8 ovarian = test system: OVCAR-8 ovarian
PC-3 prostate = test system: PC-3 prostate
RPMI-8226 leukemia = test system: RPMI-8226 leukemia
RXF 393 renal = test system: RXF 393 renal
SF-268 CNS = test system: SF-268 CNS
SF-295 CNS = test system: SF-295 CNS
SF-539 CNS = test system: SF-539 CNS
SK-MEL-2 melanoma = test system: SK-MEL-2 melanoma
SK-MEL-28 melanoma = test system: SK-MEL-28 melanoma
SK-MEL-5 melanoma = test system: SK-MEL-5 melanoma
SK-OV-3 ovarian = test system: SK-OV-3 ovarian
SN12C renal = test system: SN12C renal
SNB-19 CNS = test system: SNB-19 CNS
SNB-75 CNS = test system: SNB-75 CNS
SR leukemia = test system: SR leukemia
SW-620 colon = test system: SW-620 colon
T-47D breast = test system: T-47D breast
TK-10 renal = test system: TK-10 renal
U251 CNS = test system: U251 CNS
UACC-257 melanoma = test system: UACC-257 melanoma
UO-31 renal = test system: UO-31 renal
MDA-MB-231 breast = test system: MDA-MB-231 breast
MDA-MB-435 = test system: MDA-MB-435
UACC-62 melanoma = test system: UACC-62 melanoma

## Cc1cc(S(=O)(=O)Nc2nc(N)nc(N(C)C)n2)c(S)cc1Cl
786-0 renal
  TGI: > 10 µM
A498 renal
  TGI: > 10 µM
A549 NSCLC
  TGI: > 10 µM
ACHN renal
  TGI: > 10 µM
BT-549 breast
  TGI: > 10 µM
CAKI-1 renal
  TGI: > 10 µM
CCRF-CEM leukemia
  TGI: > 10 µM
COLO 205 colon
  TGI: > 10 µM
DU-145 prostate
  TGI: > 10 µM
EKVX NSCLC
  TGI: > 10 µM
HCC-2998 colon
  TGI: > 10 µM
HCT-116 colon
  TGI: > 10 µM
HCT-15 colon
  TGI: > 10 µM
HL-60(TB) leukemia
  TGI: > 10 µM
HOP-62 NSCLC
  TGI: > 10 µM
HOP-92 NSCLC
  TGI: > 10 µM
HT29 colon
  TGI: > 10 µM
IGROV1 ovarian
  TGI: > 10 µM
K-562 leukemia
  TGI: > 10 µM
KM12 colon
  TGI: > 10 µM
LOX IMVI melanoma
  TGI: > 10 µM
M14 melanoma
  TGI: > 10 µM
MALME-3M melanoma
  TGI: > 10 µM
MCF7 breast
  TGI: > 10 µM
MDA-N
  TGI: > 10 µM
MOLT-4 leukemia
  TGI: > 10 µM
NCI-H226 lung
  TGI: > 10 µM
NCI-H23 lung
  TGI: > 10 µM
NCI-H460 lung
  TGI: > 10 µM
NCI-H522 lung
  TGI: > 10 µM
NCI/ADR-RES ovarian
  TGI: > 10 µM
OVCAR-3 ovarian
  TGI: > 10 µM
OVCAR-4 ovarian
  TGI: > 10 µM
OVCAR-5 ovarian
  TGI: > 10 µM
OVCAR-8 ovarian
  TGI: > 10 µM
PC-3 prostate
  TGI: > 10 µM
RPMI-8226 leukemia
  TGI: > 10 µM
RXF 393 renal
  TGI: > 10 µM
SF-268 CNS
  TGI: > 10 µM
SF-295 CNS
  TGI: > 10 µM
SF-539 CNS
  TGI: > 10 µM
SK-MEL-2 melanoma
  TGI: > 10 µM
SK-MEL-28 melanoma
  TGI: > 10 µM
SK-MEL-5 melanoma
  TGI: > 10 µM
SK-OV-3 ovarian
  TGI: > 10 µM
SN12C renal
  TGI: > 10 µM
SNB-19 CNS
  TGI: > 10 µM
SNB-75 CNS
  TGI: > 10 µM
SR leukemia
  TGI: > 10 µM
SW-620 colon
  TGI: > 10 µM
T-47D breast
  TGI: > 10 µM
TK-10 renal
  TGI: > 10 µM
U251 CNS
  TGI: > 10 µM
UACC-257 melanoma
  TGI: > 10 µM
UO-31 renal
  TGI: > 10 µM

## Cc1ccc(C(=O)Nc2ccc(S(=O)(=O)O)c3cc(S(=O)(=O)O)cc(S(=O)(=O)O)c23)cc1NC(=O)Nc1cc(C(=O)Nc2ccc(S(=O)(=O)O)c3cc(S(=O)(=O)O)cc(S(=O)(=O)O)c23)ccc1C
786-0 renal
  TGI: > 87.5 µM
A498 renal
  TGI: > 87.5 µM
A549 NSCLC
  TGI: > 87.5 µM
ACHN renal
  TGI: > 87.5 µM
BT-549 breast
  TGI: > 87.5 µM
CAKI-1 renal
  TGI: > 87.5 µM
CCRF-CEM leukemia
  TGI: > 87.5 µM
DU-145 prostate
  TGI: > 87.5 µM
HCC-2998 colon
  TGI: > 87.5 µM
HCT-116 colon
  TGI: > 87.5 µM
HCT-15 colon
  TGI: > 87.5 µM
HL-60(TB) leukemia
  TGI: > 87.5 µM
HOP-62 NSCLC
  TGI: > 87.5 µM
HT29 colon
  TGI: > 87.5 µM
IGROV1 ovarian
  TGI: > 87.5 µM
K-562 leukemia
  TGI: > 87.5 µM
LOX IMVI melanoma
  TGI: > 87.5 µM
M14 melanoma
  TGI: > 87.5 µM
MALME-3M melanoma
  TGI: > 87.5 µM
MCF7 breast
  TGI: > 87.5 µM
MDA-MB-231 breast
  TGI: > 87.5 µM
MDA-MB-435
  TGI: > 87.5 µM
MDA-N
  TGI: > 87.5 µM
MOLT-4 leukemia
  TGI: > 87.5 µM
NCI-H226 lung
  TGI: > 87.5 µM
NCI-H23 lung
  TGI: > 87.5 µM
NCI-H460 lung
  TGI: > 87.5 µM
NCI-H522 lung
  TGI: > 87.5 µM
OVCAR-3 ovarian
  TGI: > 87.5 µM
OVCAR-4 ovarian
  TGI: > 87.5 µM
OVCAR-5 ovarian
  TGI: > 87.5 µM
OVCAR-8 ovarian
  TGI: > 87.5 µM
PC-3 prostate
  TGI: > 87.5 µM
RPMI-8226 leukemia
  TGI: > 87.5 µM
SF-268 CNS
  TGI: > 87.5 µM
SK-MEL-2 melanoma
  TGI: > 87.5 µM
SK-MEL-28 melanoma
  TGI: > 87.5 µM
SK-MEL-5 melanoma
  TGI: > 87.5 µM
SN12C renal
  TGI: > 87.5 µM
SNB-19 CNS
  TGI: > 87.5 µM
SNB-75 CNS
  TGI: > 87.5 µM
SR leukemia
  TGI: > 87.5 µM
SW-620 colon
  TGI: > 87.5 µM
T-47D breast
  TGI: > 87.5 µM
TK-10 renal
  TGI: > 87.5 µM
U251 CNS
  TGI: > 87.5 µM
UACC-257 melanoma
  TGI: > 87.5 µM
UACC-62 melanoma
  TGI: > 87.5 µM
UO-31 renal
  TGI: > 87.5 µM

## CC(C(N)=O)N(C)C(=O)c1cc2ccccc2[n+](Cc2ccccc2)c1 (configuration not stated)
786-0 renal
  TGI: > 100 µM
A498 renal
  TGI: > 100 µM
A549 NSCLC
  TGI: > 100 µM
ACHN renal
  TGI: > 100 µM
BT-549 breast
  TGI: > 100 µM
CAKI-1 renal
  TGI: > 100 µM
CCRF-CEM leukemia
  TGI: > 100 µM
COLO 205 colon
  TGI: > 100 µM
DU-145 prostate
  TGI: > 100 µM
HCC-2998 colon
  TGI: > 100 µM
HCT-116 colon
  TGI: > 100 µM
HCT-15 colon
  TGI: > 100 µM
HL-60(TB) leukemia
  TGI: > 100 µM
HOP-92 NSCLC
  TGI: > 100 µM
HT29 colon
  TGI: > 100 µM
IGROV1 ovarian
  TGI: > 100 µM
K-562 leukemia
  TGI: > 100 µM
KM12 colon
  TGI: > 100 µM
M14 melanoma
  TGI: > 100 µM
MALME-3M melanoma
  TGI: > 100 µM
MCF7 breast
  TGI: > 100 µM
MDA-MB-231 breast
  TGI: > 100 µM
MDA-MB-435
  TGI: > 100 µM
MDA-N
  TGI: > 100 µM
MOLT-4 leukemia
  TGI: > 100 µM
NCI-H226 lung
  TGI: > 100 µM
NCI-H23 lung
  TGI: > 100 µM
NCI-H460 lung
  TGI: > 100 µM
NCI-H522 lung
  TGI: > 100 µM
NCI/ADR-RES ovarian
  TGI: > 100 µM
OVCAR-3 ovarian
  TGI: > 100 µM
OVCAR-4 ovarian
  TGI: > 100 µM
OVCAR-5 ovarian
  TGI: > 100 µM
OVCAR-8 ovarian
  TGI: > 100 µM
PC-3 prostate
  TGI: > 100 µM
RPMI-8226 leukemia
  TGI: > 100 µM
RXF 393 renal
  TGI: > 100 µM
SF-268 CNS
  TGI: > 100 µM
SF-295 CNS
  TGI: > 100 µM
SF-539 CNS
  TGI: > 100 µM
SK-MEL-2 melanoma
  TGI: > 100 µM
SK-MEL-28 melanoma
  TGI: > 100 µM
SK-MEL-5 melanoma
  TGI: > 100 µM
SN12C renal
  TGI: > 100 µM
SNB-19 CNS
  TGI: > 100 µM
SNB-75 CNS
  TGI: > 100 µM
SW-620 colon
  TGI: > 100 µM
T-47D breast
  TGI: > 100 µM
TK-10 renal
  TGI: > 100 µM
U251 CNS
  TGI: > 100 µM
UACC-257 melanoma
  TGI: > 100 µM
UACC-62 melanoma
  TGI: > 100 µM
UO-31 renal
  TGI: > 100 µM

Source: PubChem BioAssay (NCI)
